From patent US20100240656A1, “COMPOUNDS AS HSP90 INHIBITORS” (ORYZON GENOMICS, S.A., priority 2007, published 2010) come the findings set out here.

One assay has as its system MCF-7. Kind of assay: Cell growth inhibition by AlamarBlue method, MCF-7. Format: cell-based, human. The settings on record: Homo sapiens, MCF7; MCF-7, 72 hours; read-out: Cell growth inhibition values (EC50) obtained with AlamarBlue method. How it is done: (§1) The human colon cancer cell line HCT-116 and the human breast cell lines MCF-7 and SKBr3 were from the American Type Culture Collection (ATCC; CCL-247, HTB-22 and HTB-30, respectively).
(§2) The HCT-116 and SKBr3 cell lines were maintained in DMEM GlutaMAX (Invitrogen) supplemented with 10% fetal calf serum and the MCF-7 cell line was maintained in RPMI1640 GlutaMAX (Invitrogen) containing 1 mM sodium pyruvate and 10% fetal calf serum. Cells were grown in a humidified incubator at 37° C. in 5% CO2
(§3) Cells were plated in 96-well plates (Costar, 3596) at a density of 6000 cells/well in 50 μL medium 24 h before addition of the compounds. Compounds were then added in 8 concentrations, each in triplicate (dilution series of 1 to 3). To do so, a compound-dilution plate at 200× the screening concentrations was prepared in DMSO 100% (Sigma, 154938). Then, 1.7 μL of the 200× diluted compounds were transferred to a new plate and 170 μL of media were added and mixed with the pipette (plate at 2×). Columns 11 and 12 of this plate (controls) were filled with 1% DMSO in cell media (i.e. 1.7 μL DMSO and 170 μL cell media). Finally, 50 μL of this intermediate plate at 2× were transferred to the plate containing the seeded cells and slowly shaken manually. Cells were grown as described above. AlamarBlue viability assay (Biosource, Invitrogen, DAL1100) was performed 72 hours later following manufacturer's protocol. In brief, AlamarBlue diluted in media was added to cells to have a 5% solution (a 2× solution was prepared in media and 100 μL of this solution were transferred to each well, i.e. final volume of 200 μL). Cells were incubated at 37° C., 3 hours and at room temperature for an additional 30 min. Cells with no compound and, cells with no compound and lysed with triton X-100 (30 μL/well added 10 min before treatment with AlamarBlue) were used as controls (6 replicates of each). Fluorescence was monitored at 530 nm excitation and 590 nm emission wavelengths. Results were quantified using ELx800 Universal Microplate Reader (Bio-Tek Instruments, Inc.). EC50 were calculated as the dose of compound required to inhibit cell growth by 50%.
Background: Alamar Blue is a resazurin reagent that responds to reducing activity.

The test system of another assay is K-562. The experiment in a line: Cell proliferation by MTT method, K-562. The following applies: Homo sapiens. Format: cell-based. How it is done: (§4) The objective of this study was to determine the influence of the compounds on cell proliferation of K-562, A-549, MCF-7, HeLa, WI-38 by MTT method. The compounds were tested over a three-fold dilution series in triplicate for the determination of EC50 of their influence on cell proliferation.
(§5) The assay is based on the cleavage of the yellow tetrazolium salt MTT into purple formazan by metabolically active cells. The MTT formazan crystals are insoluble in aqueous solution, but may be solubilized by adding the 10% SDS, then incubating the plates overnight in a humidified atmosphere (e.g., 37° C., 5% CO2). The solubilized formazan product can be photometrically quantitated using Tecan reader. An increase in the number of living cells results in an increase of total metabolic activity, which leads to a stronger color formation.
(§6) EC50 values are defined as the compound concentration at which 50% of reaction product is formed.
(§7) Test compounds were dissolved to 10 mM in 100% DMSO.
(§8) In the day of the experiment cells were seeded into all wells of 96-well plates. Serial dilution of compounds was performed in a separate 96-well plate at 20 times final assay concentration in cell culture medium (DMEM with 10% Fetal Bovine Serum). 5 μl of compound was transferred to 96-well plate containing seeded cells in cell culture medium (final total volume=100 μl). Cells were cultured in the presence of the respective test substances in the 96-well plate at 37° C. in a humidified 5% CO2 incubator for a certain period of time (24, 72 or 120 hours). Then 5 μL of thiazolyl blue tetrazolium bromide (MTT) 5 mg/mL was added to the cells and the cells were reincubated 4 hours in a humidified 5% CO2 incubator. Then 10% SDS was added into the each well. The reaction product was quantified by measuring the absorbance at 568 nm using a scanning multiwell spectrophotometer Tecan. The developed color and thereby the absorbance values directly correlate to the number of the living cells.
(§9) The data were analyzed using Microsoft Excel 2000, GraphPad Prism 3.03. […]
A general note: Tetrazolium assays rely on reduction of a dye to a coloured formazan, in cell work by metabolically active cells.

For a further assay, the system named is HeLa. Kind of assay: Cell proliferation by MTT method, HeLa. Format: cell-based. The settings on record: Homo sapiens. How it is done: as §4, §5, §6, §7, §8, §9
A further assay relates to WI-38. The experiment in a line: Cell proliferation by MTT method, WI-38. Format: cell-based. The following applies: Homo sapiens. How it is done:
as §4, §5, §6, §7, §8, §9

The test system of the next assay is HCT-116. The experiment in a line: Cell growth inhibition by AlamarBlue method, HCT-116. Format: cell-based. The following applies: Homo sapiens; HCT-116, 72 hours; read-out: Cell growth inhibition values (EC50) obtained with AlamarBlue method. How it is done: as §1, §2, §3
The next assay has as its system SKBr3. The experiment in a line: Cell growth inhibition by AlamarBlue method, SKBr3. Format: cell-based. The settings on record: Homo sapiens, SK-BR-3; SKBr3, 72 hours; read-out: Cell growth inhibition values (EC50) obtained with AlamarBlue method. How it is done:
as §1, §2, §3

Where only a bound is given, the exact number is not on record here.

As for `NCCCCCn1c(Sc2cc3c(cc2I)OCO3)nc(C(N)=O)c1N` [Example 6, 5-amino-1-(5-amino-pentyl)-2-(6-iodo-benzo[1,3]dioxol-5-ylsulfanyl)-1H-imidazole-4-carboxamide], the EC50 with MCF-7 was 15.9 µM; in the assay with K-562 (K562, 24 h, K 562, incubation 1 day) it was > 100 µM; in the assay on K-562 (K562, 72 h, K 562, incubation 3 days), 12.2 µM; in the assay with K-562 (K562, 120 h, K 562, incubation 5 days), 9.1 µM; in the assay on HeLa (24 h, incubation 1 day), > 100 µM; with HeLa (72 h, incubation 3 days), 14.6 µM. The EC50 in the assay with HeLa (120 h, incubation 5 days) is 8.6 µM; in the assay with WI-38 (24 h, WI-38, incubation 1 day) it was > 100 µM; in the assay on WI-38 (72 h, WI-38, incubation 3 days) it was 27.7 µM; in the assay with WI-38 (120 h, WI-38, incubation 5 days), 19.5 µM; with HCT-116 it was 23.7 µM.

Take `CCCCn1c(Sc2cc3c(cc2I)OCO3)nc(C(N)=O)c1N` [Example 10, 5-amino-1-butyl-2-(6-iodo-benzo[1,3]dioxol-5-ylsulfanyl)-1H-imidazole-4-carboxamide]: the EC50 was 18 µM in the assay on HCT-116 and 24 to 30 µM in the assay on SKBr3.

Usually EC50 stands for the concentration at which the effect is half-maximal.
